This test deals with Rh30-Myr-p110δ cells. Nature of the test: Akt phosphorylation in isogenic Rh30-Myr-p110 cells (Western blot). Conditions: for EC50 / IC50: Homo sapiens; for EC50: Rh30-Myr-p110δ cells; for IC50: serum-free 12 h, compound 1 h, band intensity, mean of three experiments. The format is cell-based, human. The text has this: To assess the selectivity of X-370 in the context of an isogenic cellular background, we generated a panel of Rh30 human rhabdomyosarcoma cell lines each of which stably expresses a single myristoylated (Myr)-epitope tagged p110 human class I PI3K catalytic subunit, termed as Rh30-Myr-p110α, Rh30-Myr-p110β, Rh30-Myr-p110γ or Rh30-Myr-p110δ. In these cells, endogenous PI3K is not activated under serum-free culture conditions, whereas the ectopically expressed p110 isoforms are membrane-anchored and constitutively active due to myristoylation at N-terminal. Utilizing this cell panel, isoform-specific PI3K activity can be determined for any given inhibitor[25]. These cells were treated with X-370 and phosphorylated Akt was detected as the readout of PI3K activity. X-370 inhibited phosphorylation of Akt at both Thr308 and Ser473 in a dose-dependent manner in four tested cell lines (Figure 2A). […] Similar property was also observed in CAL-101 (Figure S2).
Cell lysates were probed with indicated antibodies. The IC50 values were calculated based on relative band intensity measured with ImageQuant™ TL (GE Healthcare Life Sciences, Piscataway, NJ) (B). Data shown are mean values from three independent experiments. (C, D, E, F) X-370 blocked stimuli-triggered PI3Kδ activation. MEF cells and THP-1 were starved in serum-free medium for 12 h or 4 h respectively and X-370 were added for an additional 1 h treatment following stimulation of IGF-1 at 100 ng/ml for MEF cells (C), LPA at 10 μM for MEF cells (D), MCP-1 at 100ng/ml for THP-1 (E) and M-CSF at 50 ng/ml for THP-1 (F). Similar results were derived from 3 independent experiments. TEXT PRINTED IN THE PICTURE: (B) X-370: IC50 (μM) in Rh30-Myr-p110s, Akt pT308, PI3Kα: 0.68; IC50 (μM) in Rh30-Myr-p110s, Akt pT308, PI3Kβ: 0.4; IC50 (μM) in Rh30-Myr-p110s, Akt pT308, PI3Kγ: 0.46; IC50 (μM) in Rh30-Myr-p110s, Akt pT308, PI3Kδ: 0.032; IC50 (μM) in Rh30-Myr-p110s, Akt pS473, PI3Kα: 0.53; IC50 (μM) in Rh30-Myr-p110s, Akt pS473, PI3Kβ: 0.29; IC50 (μM) in Rh30-Myr-p110s, Akt pS473, PI3Kγ: 0.23; IC50 (μM) in Rh30-Myr-p110s, Akt pS473, PI3Kδ: 0.02 DOUBTS OF THE COPYIST ABOUT THIS PICTURE: Panel B prints no substance label in the table itself; the label X-370 is taken from the other panels of the same picture, where it is the only substance printed. […]
Cells were treated as indicated conditions and then subjected to lysate to perform standard Western blot as described previously1. Briefly, whole-cell lysates and SDS-loading buffer diluted cell fractions were analyzed on SDS-PAGE gels. Transfer to nitrocellulose membranes, nonfat milk blocking, probing with indicated primary antibodies and the corresponding HRP-conjugated second antibodies.
Chemiluminescence were performed and captured using ImageQuant LAS 4000 (GE healthcare Life Sciences, Piscataway, NJ, USA) and band intensity was measure both with ImageQuant™ TL (GE Healthcare Life Sciences) 2. […]
(also on this page, place not known: PI3Kδ -dependent MEK1/2 - B -cell previously 1. whole -cell SDS -loading SDS -PAGE HRP -conjugated (G E A B Val828 Trp760 Thr750 Met752 Tyr813 affinity pocket specificity pocket hinge Glu826 CAL-101 X-370) […]
(1 picture or pasted object on this page, not shown here) […]
in serum-free medium for 12 h and then incubated with serially diluted CAL -101 for an additional 1 h.
Cell lysates were probed with indicated antibodies. The IC50 values were calculated based on relative band intensity measured with ImageQuant™ TL (GE Healthcare Life Sciences, Piscataway, NJ). Data shown are mean values from three independent experiments.
Table S1: Inhibitory activity of X-370 against protein kinases […]
kinome at 10 μM. The relative kianse activity left in the presence of 10 μM were shown (Mi llipore […]
Kinase activity (% of control) Kinase activity (% of control) Kinase activity (% of control) […]
CDK1/cyclinB 97 Lck activated 89 Ret 125 […]

Read-outs that look alike come from different tables or passages of the source.

Regarding `O=C(N1CCCC1)N1CCC(n2cnc3c(-n4c(C(F)F)nc5ccccc54)nc(N4CCOCC4)nc32)CC1` [X-370], where the note is “Akt pT308 and pS473”, the “fold lower EC50 in Rh30-Myr-p110δ than in isogenic Rh30-Myr-p110α/β/γ cells” value was “at least 10 fold”. The EC50 was determined as 20 nM (read-out: EC50, Akt phosphorylation (Akt pS473)) and 32 nM (read-out: EC50, Akt phosphorylation (Akt pT308)). For the same compound, the IC50 is 0.02 µM (read-out: IC50 (μM) in Rh30-Myr-p110s, Akt pS473, PI3Kδ) and 0.032 µM (read-out: IC50 (μM) in Rh30-Myr-p110s, Akt pT308, PI3Kδ).
